PMC6943742, “Peptide/Peptoid Hybrid Oligomers: The Influence of Hydrophobicity and Relative Side-Chain Length on Antibacterial Activity and Cell Selectivity” (Molecules, 2019)
In brackets after ≈: the same amount, converted by molar mass. Non-standard residues stand in square brackets, D forms with d. Residues, ends and D or L forms follow the SMILES beside them. N(5-aminopentyl)Gly = NCCCCCNCC(=O)O; Gly(N-2-aminoethyl) = NCCNCC(=O)O; Gly(N(CH2)3NH2) = NCCCNCC(=O)O; hLys = NCCCCC[C@H](N)C(=O)O; Nphe = O=C(O)CNCc1ccccc1; Nlys = NCCCCNCC(=O)O

Experiments:
[1] = Relative hydrophobicity by RP-HPLC (% MeCN at peak elution); format: physicochemical; settings: RP-HPLC gradient 0 → 60% B during 10 min; % MeCN at peak elution calculated from retention time
Experimental: The relative hydrophobicity of each peptidomimetic was measured by reverse-phase high-performance liquid chromatography (RP-HPLC). Typically, the RP-HPLC retention time (or percentage acetonitrile at peak elution) constitutes the preferred measure that allows for comparison of relative hydrophobicity, while log P values of polycationic peptides or peptidomimetics normally are considered unsuitable due to the extreme hydrophilic nature of such compounds [11, 45, 57, 58, 59, 60]. […] For both subgroups III (with cationic amino acid residues and the peptoid analogue of Phe, NPhe, i.e., 9–12) and IV (with cationic amino acid residues and the peptoid analogue of hPhe, NhPhe, i.e., 13–16) only minor differences in hydrophobicity were seen. These observations infer that, when the cationic residues are of a peptoid nature, the side-chain length of these has a […] influence on the hydrophobicity. […] Thus, introduction of additional six methylene groups results, as expected, in increased hydrophobicity.
Starting materials and solvents were purchased from commercial suppliers (Iris Biotech, Markredwitz, Germany; Fluorochem, Hadfield, United Kingdom; and Merck, Darmstadt, Germany) and used without further purification. Water used for analytical and preparative high-performance liquid chromatography (HPLC) was filtered through a 0.22-μm Millipore membrane filter. Purity and retention time of each peptidomimetic were determined by analytical UHPLC by using a Phenomenex Luna C18(2) HST column (100 mm × 3 mm; particle size: 2.5 μm; pore size: 100 Å) on a Shimadzu Prominence and Shimadzu Nexera system using an aqueous acetonitrile (MeCN) gradient with 0.1% trifluoroacetic acid (TFA) added (eluent A: 5:95 MeCN–H2O + 0.1% TFA, eluent B: 95:5 MeCN–H2O + 0.1% TFA); a flow rate of 0.5 mL/min was used. For elution of peptidomimetics, a linear gradient of 0% to 60% B during 10 min was used with UV detection at λ = 220 nm. […] For each peptidomimetic, the percentage of MeCN at peak elution was calculated from the retention time by using the following formula:(1) %MeCN = 0.95 (0.6Rt/10 min.) + 0.05 (1−0.6Rt/10 min.).

[2] = tested on: A. baumannii ATCC 19606; format: cell-based; settings: ATCC 19606, 20 h
Experimental: (§1) MIC values were evaluated by using the modified Hancock lab protocol in non-binding polystyrene microtitre plates, with bacterial suspensions of ∼2 × 10^5 CFU/mL in Mueller-Hinton broth (Difco, Sparks MD, USA), with Mg^2+ and Ca^2+ concentrations of 4 mg/L each. The compounds were dissolved in H2O and diluted in 0.01% acetic acid, 0.2% BSA (final concentration). Aliquots of 11 µL of 10 × test compounds were then transferred to the appropriate wells with bacterial suspensions. For preparation and transfer of the solutions of the compounds, low-binding sterile tubes and tips (Axygen, Union City CA, USA) were used. After 20 h incubation of covered plates at 35 °C (±2 °C) with circular shaking at 220 rpm, the MICs were read. The antibacterial activity of peptidomimetics was tested against E. coli ATCC 25922, K. pneumoniae ATCC 13883, P. aeruginosa ATCC 27853, P. aeruginosa PAO1, A. baumannii ATCC 19606, S. aureus ATCC 29213, and E. faecalis ATCC 29212.

[3] = tested on: E. coli ATCC 25922; format: cell-based; settings: ATCC 25922, 20 h
Experimental: as §1

[4] = tested on: E. faecalis ATCC 29212; format: cell-based; settings: ATCC 29212, 20 h
Experimental: as §1

[5] = tested on: K. pneumoniae ATCC 13883; format: cell-based; settings: ATCC 13883, 20 h
Experimental: as §1

[6] = tested on: P. aeruginosa ATCC 27853; format: cell-based; settings: ATCC 27853, 20 h
Experimental: as §1

[7] = tested on: P. aeruginosa PAO1; format: cell-based; settings: PAO1, 20 h
Experimental: as §1

[8] = tested on: S. aureus ATCC 29213; format: cell-based; settings: ATCC 29213, 20 h
Experimental: as §1

[9] = in vitro; format: cell-based; settings: human
Experimental: (§2) Side effects affecting cell viability were estimated on the HepG2 cell line ATCC HB-8065. In brief, HepG2 cells were seeded in flat-bottomed 96-well plates at a concentration of 5000 cells per well. At 80−90% confluency, the cells were incubated for 24 h in a humidified incubator (5% CO2, 37 °C). The medium was removed, and the cells were incubated for 48 h in a humidified incubator (5% CO2, 37 °C) with compounds in two-fold serial dilutions. An MTT assay was then performed as previously described. In brief, after incubation with the test compounds, the culture medium was removed and fresh medium with 0.2 mg/mL MTT was added in each well of the plate. After incubation (3 h, 37 °C, 5% CO2), the medium with MTT was removed, and 200 μL dimethyl sulfoxide were added at once to each sample. Absorbance of MTT was measured using spectrophotometer TECAN Infinite M1000 at 540 nm. The relative viability was calculated by using the formula: ODtreated cells × 100/ODcontrol cells. The IC50 values are calculated by using the program Graph Pad Prism® 5.0. For all compounds, the test range was 10–1280 μg/mL.

[10] = tested on: HepG2 cell line ATCC HB-8065; test: in vitro; format: cell-based; settings: 48 h
Experimental: as §2

[11] = in vitro; format: cell-based; settings: human, Hemolytic Activity (percentage hemolysis)
Experimental: The lysis of human red blood cells was measured as previously described, with modifications. In brief, freshly drawn human red blood cells (hRBCs) were washed three times with PBS buffer and centrifuged two times for 5 min at 2500 rpm. A two-fold serial dilution of peptidomimetics in PBS buffer was added to each well in a sterile polypropylene V-bottom 96-well plate to the total volume of 75 μL. A 0.5% v/v hRBC suspension (75 μL in PBS buffer) was added to each well to reach a final volume of 150 μL in each well. The plate was incubated (37 °C) for 60 min, and then the cells were subsequently pelleted by centrifugation at 1000 rpm for 5 min. The supernatants (50 μL) were transferred to clear, flat-bottomed plastic 96-well plates. The concentration of hemoglobin was detected by measuring the OD at 405 nm. The OD of cells incubated with 0.1% SDS defined 100% hemolysis, while the OD of cells incubated with PBS buffer defined 0% hemolysis. The concentrations tested were 200, 400, and 800 μg/mL (only average values for the highest concentration are stated in Table 2).

| SMILES | Hydrophobicity (% MeCN at elution) [1] [%] | MIC [2] [µg/mL] | MIC [3] [µg/mL] | MIC [4] [µg/mL] | MIC [5] [µg/mL] | MIC [6] [µg/mL] | MIC [7] [µg/mL] | MIC [8] [µg/mL] | viability at 48 h, 1280 µg/mL [9] [%] | IC50 for inhibiting growth of HepG2 cells [10] [µg/mL] | hemolysis at 60 min, 800 µg/mL [11] [%] |
| --- | --- | --- | --- | --- | --- | --- | --- | --- | --- | --- | --- |
| NCCNCC(=O)N[C@@H](Cc1ccccc1)C(=O)N(CCN)CC(=O)N[C@@H](Cc1ccccc1)C(=O)N(CCN)CC(=O)N[C@@H](Cc1ccccc1)C(=O)N(CCN)CC(=O)N[C@@H](Cc1ccccc1)C(=O)N(CCN)CC(=O)N[C@@H](Cc1ccccc1)C(=O)N(CCN)CC(=O)N[C@@H](Cc1ccccc1)C(N)=O [Peptidomimetic 1] (H-[Gly(N-2-aminoethyl)]F[Gly(N-2-aminoethyl)]F[Gly(N-2-aminoethyl)]F[Gly(N-2-aminoethyl)]F[Gly(N-2-aminoethyl)]F[Gly(N-2-aminoethyl)]F-NH2) | 37.5 | >64 | 4 to 8 | >64 | 64 (≈ 42.6 µM) | 64 (≈ 42.6 µM) | >64 | >64 | 49 | 1280 | 7 |
| NCCCNCC(=O)N[C@@H](Cc1ccccc1)C(=O)N(CCCN)CC(=O)N[C@@H](Cc1ccccc1)C(=O)N(CCCN)CC(=O)N[C@@H](Cc1ccccc1)C(=O)N(CCCN)CC(=O)N[C@@H](Cc1ccccc1)C(=O)N(CCCN)CC(=O)N[C@@H](Cc1ccccc1)C(=O)N(CCCN)CC(=O)N[C@@H](Cc1ccccc1)C(N)=O [Peptidomimetic 2] (H-[Gly(N(CH2)3NH2)]F[Gly(N(CH2)3NH2)]F[Gly(N(CH2)3NH2)]F[Gly(N(CH2)3NH2)]F[Gly(N(CH2)3NH2)]F[Gly(N(CH2)3NH2)]F-NH2) | 35.7 | >64 | 8 to 16 | >64 | 64 (≈ 40.4 µM) | >64 | >64 | >64 | 62 | >1280 | 5 |
| NCCCCNCC(=O)N[C@@H](Cc1ccccc1)C(=O)N(CCCCN)CC(=O)N[C@@H](Cc1ccccc1)C(=O)N(CCCCN)CC(=O)N[C@@H](Cc1ccccc1)C(=O)N(CCCCN)CC(=O)N[C@@H](Cc1ccccc1)C(=O)N(CCCCN)CC(=O)N[C@@H](Cc1ccccc1)C(=O)N(CCCCN)CC(=O)N[C@@H](Cc1ccccc1)C(N)=O [Peptidomimetic 3] (H-[Nlys]F[Nlys]F[Nlys]F[Nlys]F[Nlys]F[Nlys]F-NH2) | 35.6 | >64 | 8 to 16 | >64 | 32 (≈ 19.2 µM) | >64 | >64 | >64 | 52 | 1280 | 8 |
| NCCCCCNCC(=O)N[C@@H](Cc1ccccc1)C(=O)N(CCCCCN)CC(=O)N[C@@H](Cc1ccccc1)C(=O)N(CCCCCN)CC(=O)N[C@@H](Cc1ccccc1)C(=O)N(CCCCCN)CC(=O)N[C@@H](Cc1ccccc1)C(=O)N(CCCCCN)CC(=O)N[C@@H](Cc1ccccc1)C(=O)N(CCCCCN)CC(=O)N[C@@H](Cc1ccccc1)C(N)=O [Peptidomimetic 4] (H-[N(5-aminopentyl)Gly]F[N(5-aminopentyl)Gly]F[N(5-aminopentyl)Gly]F[N(5-aminopentyl)Gly]F[N(5-aminopentyl)Gly]F[N(5-aminopentyl)Gly]F-NH2) | 36.6 | 64 (≈ 36.5 µM) | 4 to 8 | >64 | 64 (≈ 36.5 µM) | >64 | >64 | >64 | 49 | 1280 | 9 |
| NCCCCC[C@H](NC(=O)CN(Cc1ccccc1)C(=O)[C@H](CCCCCN)NC(=O)CN(Cc1ccccc1)C(=O)[C@H](CCCCCN)NC(=O)CN(Cc1ccccc1)C(=O)[C@H](CCCCCN)NC(=O)CN(Cc1ccccc1)C(=O)[C@H](CCCCCN)NC(=O)CN(Cc1ccccc1)C(=O)[C@@H](N)CCCCCN)C(=O)N(CC(N)=O)Cc1ccccc1 [Peptidomimetic 12] (H-[hLys][Nphe][hLys][Nphe][hLys][Nphe][hLys][Nphe][hLys][Nphe][hLys][Nphe]-NH2) | 38.0 |  | 2 (≈ 1.14 µM) | >64 | >64 | 64 (≈ 36.5 µM) | 64 (≈ 36.5 µM) | >64 | 47 | 1280 | 9 |
